# Measurements taken from patent US10017580B2, “Humanized anti-Tn-MUC1 antibodies and their conjugates” (ADC THERAPEUTICS S.A., priority 2014, dated 2018).
# How the values were obtained:
# [1] = tested on: K562 human chronic myeloid leukaemia cells; assay: K562 assay (MTT cytotoxicity of released compounds); format: cell-based; settings: drug incubation 1 hour or 96 hours (not specified which)
# Protocol: K562 human chronic myeloid leukaemia cells were maintained in RPM1 1640 medium supplemented with 10% fetal calf serum and 2 mM glutamine at 37° C. in a humidified atmosphere containing 5% CO2 and were incubated with a specified dose of drug for 1 hour or 96 hours at 37° C. in the dark. The incubation was terminated by centrifugation (5 min, 300 g) and the cells were washed once with drug-free medium. Following the appropriate drug treatment, the cells were transferred to 96-well microtiter plates (10^4 cells per well, 8 wells per sample). Plates were then kept in the dark at 37° C. in a humidified atmosphere containing 5% CO2. The assay is based on the ability of viable cells to reduce a yellow soluble tetrazolium salt, 3-(4,5-dimethylthiazol-2-yl)-2,5-diphenyl-2H-tetrazolium bromide (MTT, Aldrich-Sigma), to an insoluble purple formazan precipitate. Following incubation of the plates for 4 days (to allow control cells to increase in number by approximately 10 fold), 20 μL of MTT solution (5 mg/mL in phosphate-buffered saline) was added to each well and the plates further incubated for 5 h. The plates were then centrifuged for 5 min at 300 g and the bulk of the medium pipetted from the cell pellet leaving 10-20 μL per well. […] The optical density was then read at a wavelength of 550 nm on a Titertek Multiscan ELISA plate reader, and a dose-response curve was constructed. […]
# [2] = Thermal denaturation assay (protocol 5); format: physicochemical; settings: 50% inactivation temperature, 10 minutes heating, read by antigen-binding ELISA
# [3] = tested on: ZR-75-1 cell line, which expresses Tn-MUC1; assay: ZR-75-1 cell binding assay by flow cytometry (protocol 6); settings: flow cytometry, live cells
# Protocol: Protocol 6: ZR-75-1 Cell Binding Assay by Flow Cytometry Materials • Wash solution: PBS 0.1% (w/v) sodium azide • Binding buffer: PBS, 10% normal goat serum, 0.1% (w/v) sodium azide) • 96 well U-well microplate Protocol
# Exponentially growing cells are suspended by incubation with cell dissociation buffer enzyme-free, Hanks-based (Gibco 13150-016) following the manufacturer's instructions. A cell count/viability is done on a dilution of 10 ul cells+Trypan Blue, 10 ul, with a haemocytomer. The suspension is centrifuged and the cell pellet re-suspended in binding buffer at 3×10^6 per ml. If significant levels of aggregates are present in the cell count, the suspension is filtered to remove aggregates. The cell suspension is dispensed (50 ul/well) in 96 well U-bottom plates and cooled on ice for 10 minutes. Primary antibody (50 ul/well) diluted in binding buffer (typically 1 ug per ml or less) is added to each well and incubated at 4° C. for 1 hour. […] Cells are then re-suspended in PBS if reading immediately or fixed in 100 ul of paraformaldehyde (2% (w/v) in PBS) and analysed with by flow cytometer (Accuri C6), gating on live cells which have a lower Fixable Viability Dye MFI compared to dead cells.
# IgG binding potency to Tn-MUC1 was measured as per protocol 4 and binding to the ZR-75-1 cell line, which expresses Tn-MUC1, was measured as per protocol 6.
# [4] = target: Tn-MUC1 (16TR-MUC1-Tn); assay: Tn-MUC1 binding ELISA (protocol 4); set-up: species or system human; settings: ELISA on 16TR-MUC1-Tn coated plate
# Tn-MUC1 (16TR-MUC1-Tn), sequence (P15941 141-460 limits assumed): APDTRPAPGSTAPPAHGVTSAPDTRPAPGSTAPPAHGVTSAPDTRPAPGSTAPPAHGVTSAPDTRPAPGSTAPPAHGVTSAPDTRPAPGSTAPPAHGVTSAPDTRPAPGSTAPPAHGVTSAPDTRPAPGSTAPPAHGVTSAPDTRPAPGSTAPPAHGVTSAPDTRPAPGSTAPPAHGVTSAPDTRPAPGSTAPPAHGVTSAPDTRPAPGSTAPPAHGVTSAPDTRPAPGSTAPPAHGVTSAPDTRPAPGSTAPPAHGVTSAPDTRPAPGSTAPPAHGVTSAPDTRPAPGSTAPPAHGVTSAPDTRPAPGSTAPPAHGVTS
molecule,measurement,setting,value
COc1cc2c(cc1OCCCOc1cc3c(cc1OC)C(=O)N1C=C(C)C[C@H]1C=N3)N=C[C@@H]1CC(C)=CN1C2=O [Compound RelE],IC50,[1],0.425 nM
Mouse 5E5: anti-Tn MUC 1 antibody comprising a VH domain according to SEQ ID NO. 1 and a VL domain according to SEQ ID NO. 30 [reference compound],Tm,[2],69.97 °C
same,ZR-75-1 cell binding EC50,[3],28.34 ng/mL
same,Tn-MUC1 binding EC50,[4],31.10 ng/mL
